According to US8865894B2, “Oxazolidin-2-one compounds and uses thereof” (Novartis AG, priority 2012, dated 2014):

Target: T1, human PI3Kβ (Homo sapiens, UniProt P42338)
T1 construct: made in house
Test: Biochemical PI3Kbeta (KinaseGlo luminescent kinase assay)
Settings: 1 μM ATP, mean of n measurements, read-out: PI3Kb/ IC50
Method: Test compounds were dissolved in DMSO (10 mM) and transferred into 1.4 mL flat bottom or V-shaped Matrix tubes carrying a unique 2D matrix chip by individual Novartis compound hubs. The numbers of these chips were distinctively linked to Novartis Pharma Numbers. The stock solutions were stored at −20° C. if not used immediately. For the test procedure the vials were defrosted and identified by a scanner whereby a working sheet was generated that guided the subsequent working steps.
Compounds were either manually diluted in DMSO for individual experiments (96 wells enabling 10 cpds at 8 (single points) concentrations) as described in or prepared as described below if tested for profiling in 384-wells. This format enabled the assay of maximally 40 individual test compounds at 8 concentrations (single points) including 4 reference compounds. The dilution protocol included the production of “pre-dilution plates”, “master plates” and “assay plates”.
96 polypropylene well plates were used as pre-dilution plates. A total of 4 pre-dilution plates were prepared including 10 test compounds each on the plate positions A1-A10, one standard compound at A11 and one DMSO control at A12. Programs have been written to run these pipetting steps on the HamiltonSTAR robots.
Identical “assay plates” were then prepared by pipetting 50 nL each of compound dilutions of the “master plates” into 384-well “assay plates”. The compounds were mixed with 4.5 μL of assays components plus 4.5 μL enzyme corresponding to a 1:181 dilution enabling the final concentration of 10, 3.0, 1.0, 0.3, 0.1, 0.03, 0.01 and 0.003 μM, respectively. The preparation of the “master plates” was handled by the Matrix PlateMate Plus robot and replication of “assay plates” by the HummingBird robot.
Catalytically active human PI3Kα, PI3Kβ, PI3Kδ, and mTOR were cloned, expressed and purified as described (Maira S M, Stauffer F, Brueggen J, Furet P, Schnell C, Fritsch C, Brachmann S, Chène P, de Pover A, Schoemaker K, Fabbro D, Gabriel D, Simonen M, Murphy L, Finan P, Sellers W, García-Echeverría C (2008), Mol Cancer Ther. 7:1851-63 and Maira S M, Pecchi S, Brueggen J, Huh K, Schnell C, Fritsch C, Nagel T, Wiesmann M, Brachmann S, Dorsch M, Chène P, Schoemaker K, De Pover A, Menezes D, Fabbro D, Sellers W, García-Echeverría C, Voliva C F (2011), Mol. Cancer Ther. accepted).
The luminescence-based ATP detection reagent KinaseGlo was obtained from Promega, (Cat. No. V6714, Lot No. 236161) through Catalys, Wallisellen, Switzerland. (L-alpha-phosphatidylinositol (PI), Liver, Bovine) were obtained from Avanti Polar Lipid (Cat. No. 840042C, Lot#LPI-274), Phosphatidylinositol-4,5-bisphosphate (PIP(4,5)2 (Avanti, Cat. No. 840046×) or L-α-phosphatidylinositol (PI) was obtained from Avanti Polar Lipid (Cat. No. 840042C, Lot#LPI-274). L-α-Phosphatidylserine (PS) was from Avanti Polar Lipid (Cat. No. 840032C), n-OctylGlucoside Avanti Polar Lipid (Cat. No. 10634425001). Luminescence is a well established readout to determine ATP concentrations and can thus be used to follow the activity of many kinases regardless of their substrate. The Kinase Glo Luminescent Kinase Assay (Promega, Madison/Wis., USA) is a homogeneous HTS method of measuring kinase activity by quantifying the amount of ATP remaining in solution following a kinase reaction.
50 nL of compound dilutions were dispensed onto black 384-well low volume Non Binding Styrene (NBS) plates (Costar Cat. No. NBS#3676) as described in section 8.2. L-α-phosphatidylinositol (PI), provided as 10 mg/ml solution in methanol, was transferred into a glass tube and dried under nitrogen beam. It was then resuspended in 3% OctylGlucoside by vortexing and stored at 4° C. 5 μL of a mix of PI/OG with the PI3Ka and Pi3Kb subtypes were added. Kinase reactions were started by addition of 5 μl of ATP-mix containing in a final volume 10 μL 10 mM TRIS-HCl pH 7.5, 3 mM MgCl2, 50 mM NaCl, 0.05% CHAPS, 1 mM DTT and 1 μM ATP, and occurred at room temperature.

T1 sequence (P42338 2-1070 limits assumed): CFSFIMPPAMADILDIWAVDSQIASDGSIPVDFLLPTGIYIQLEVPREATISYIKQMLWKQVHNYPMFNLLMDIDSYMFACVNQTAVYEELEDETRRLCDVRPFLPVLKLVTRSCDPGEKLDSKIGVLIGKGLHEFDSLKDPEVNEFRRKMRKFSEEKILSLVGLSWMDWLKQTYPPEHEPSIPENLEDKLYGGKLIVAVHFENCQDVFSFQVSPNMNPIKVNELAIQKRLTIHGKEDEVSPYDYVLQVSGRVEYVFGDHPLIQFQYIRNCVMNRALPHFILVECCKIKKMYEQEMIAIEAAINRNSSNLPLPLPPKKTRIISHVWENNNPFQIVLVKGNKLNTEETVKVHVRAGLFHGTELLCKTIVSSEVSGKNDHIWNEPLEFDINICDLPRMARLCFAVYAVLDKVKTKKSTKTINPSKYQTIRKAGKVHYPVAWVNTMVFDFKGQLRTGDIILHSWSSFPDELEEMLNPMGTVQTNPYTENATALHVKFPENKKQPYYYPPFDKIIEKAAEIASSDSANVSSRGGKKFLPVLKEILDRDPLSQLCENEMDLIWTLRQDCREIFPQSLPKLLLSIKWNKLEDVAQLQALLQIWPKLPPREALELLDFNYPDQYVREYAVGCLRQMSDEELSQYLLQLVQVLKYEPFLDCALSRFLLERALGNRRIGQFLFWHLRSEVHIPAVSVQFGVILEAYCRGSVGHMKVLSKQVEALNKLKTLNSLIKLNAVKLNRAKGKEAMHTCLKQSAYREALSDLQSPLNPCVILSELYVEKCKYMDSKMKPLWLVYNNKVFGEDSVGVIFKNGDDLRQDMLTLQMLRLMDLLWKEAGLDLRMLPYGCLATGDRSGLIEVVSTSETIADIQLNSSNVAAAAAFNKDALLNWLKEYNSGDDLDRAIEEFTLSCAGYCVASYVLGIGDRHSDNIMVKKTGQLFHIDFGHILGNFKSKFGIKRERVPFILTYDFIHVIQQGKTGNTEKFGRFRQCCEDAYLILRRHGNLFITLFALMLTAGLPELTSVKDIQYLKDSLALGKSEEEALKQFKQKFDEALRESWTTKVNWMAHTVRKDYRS

IC50 | SMILES
124 nM | C[C@H]1C(CC(C)(C)O)OC(=O)N1c1cc(-c2cnc(N)nc2C(F)(F)F)nc(N2CCOCC2)n1 (mixture of isomers) [Example 26, (4S,5R)- and (4S,5S)-3-(2′-amino-2-morpholino-4′-(trifluoromethyl)-[4,5′-bipyrimidin]-6-yl)-5-(2-hydroxy-2-methylpropyl)-4-methyloxazolidin-2-one]
18 nM | CC1(CO)COC(=O)N1c1cc(-c2cnc(N)nc2C(F)(F)F)nc(N2CCOCC2)n1 (racemic) [Example 3, 3-(2′-amino-2-morpholino-4′-(trifluoromethyl)-4,5′-bipyrimidin-6-yl)-4-(hydroxymethyl)-4-methyloxazolidin-2-one]
48 nM | Nc1ncc(-c2cc(N3C(=O)O[C@@H]4[C@@H](O)CC[C@@H]43)nc(N3CCOCC3)n2)c(C(F)(F)F)n1 (racemic) [Example 22, (3aR*,6R*,6aR*)-3-(2′-Amino-2-morpholino-4′-(trifluoromethyl)-[4,5′-bipyrimidin]-6-yl)-6-hydroxyhexahydro-2H-cyclopenta[d]oxazol-2-one]
86 nM | Nc1ncc(-c2cc(N3C(=O)OC4C(O)CCC43)nc(N3CCOCC3)n2)c(C(F)(F)F)n1 (single isomer, unassigned) [Example 22A]
58 nM | Nc1ncc(-c2cc(N3C(=O)OC4C(O)CCC43)nc(N3CCOCC3)n2)c(C(F)(F)F)n1 (single isomer, unassigned) [Example 22B]
16 nM | C[C@@H](O)C[C@H]1OC(=O)N(c2cc(-c3cnc(N)nc3C(F)(F)F)nc(N3CCOCC3)n2)[C@H]1C (single isomer, unassigned) [Example 24]
11 nM | C[C@H](O)CC1OC(=O)N(c2cc(-c3cnc(N)nc3C(F)(F)F)nc(N3CCOCC3)n2)[C@H]1C (single isomer, unassigned) [Example 25]
6 nM | C[C@H]1COC(=O)N1c1cc(-c2cnc(N)nc2C(F)(F)F)nc(N2CCOCC2)n1 [Example 1, (S)-3-(2′-Amino-2-morpholin-4-yl-4′-trifluoromethyl-[4,5′]bipyrimidinyl-6-yl)-4-methyl-oxazolidin-2-one]
20 nM | CC1(C)OC(=O)N(c2cc(-c3cnc(N)nc3C(F)(F)F)nc(N3CCOCC3)n2)[C@H]1CO [Example 2, (S)-3-(2′-Amino-2-morpholin-4-yl-4′-trifluoromethyl-[4,5′]bipyrimidinyl-6-yl)-4-hydroxymethyl-5,5-dimethyl-oxazolidin-2-one]
7 nM | Nc1ncc(-c2cc(N3C(=O)O[C@H]4CCCC[C@@H]43)nc(N3CCOCC3)n2)c(C(F)(F)F)n1 [Example 4, (3aS,7aS)-3-(2′-Amino-2-morpholin-4-yl-4′-trifluoromethyl-[4,5′]bipyrimidinyl-6-yl)-hexahydro-benzooxazol-2-one]
11 nM | COC[C@H]1COC(=O)N1c1cc(-c2cnc(N)nc2C(F)(F)F)nc(N2CCOCC2)n1 [Example 5, (S)-3-(2′-Amino-2-morpholin-4-yl-4′-trifluoromethyl-[4,5′]bipyrimidinyl-6-yl)-4-methoxymethyl-oxazolidin-2-one]
7 nM | C[C@@H]1OC(=O)N(c2cc(-c3cnc(N)nc3C(F)(F)F)nc(N3CCOCC3)n2)[C@H]1CO [Example 6]
4 nM | [2H]C1([2H])OC([2H])([2H])C([2H])([2H])N(c2nc(-c3cnc(N)nc3C(F)(F)F)cc(N3C(=O)O[C@H](C)[C@@H]3CO)n2)C1([2H])[2H] [Example 8]
41 nM | Nc1ncc(-c2cc(N3C(=O)OC[C@@H]3CCO)nc(N3CCOCC3)n2)c(C(F)(F)F)n1 [Example 9, (S)-3-(2′-Amino-2-morpholin-4-yl-4′-trifluoromethyl-[4,5′]bipyrimidinyl-6-yl)-4-(2-hydroxy-ethyl)-oxazolidin-2-one]
38 nM | C[C@H]1OC(=O)N(c2cc(-c3cnc(N)nc3C(F)(F)F)nc(N3CCOC[C@@H]3C)n2)[C@H]1CO [Example 10, (4S,5R)-3-[2′-Amino-2-((S)-3-methyl-morpholin-4-yl)-4′-trifluoromethyl-[4,5′]bipyrimidinyl-6-yl]-4-hydroxymethyl-5-methyl-oxazolidin-2-one]
12 nM | Nc1ncc(-c2cc(N3CCOC3=O)nc(N3CCOCC3)n2)c(C(F)(F)F)n1 [Example 11, 3-(2′-Amino-2-morpholin-4-yl-4′-trifluoromethyl-[4,5′]bipyrimidinyl-6-yl)-oxazolidin-2-one, reference compound]
49 nM | C[C@H]1OC(=O)N(c2cc(-c3cnc(N)nc3C(F)(F)F)nc(N3CCOCC3)n2)[C@H]1COC=O [Example 12, Formic acid (4S,5R)-3-(2′-amino-2-morpholin-4-yl-4′-trifluoromethyl-[4,5′]bipyrimidinyl-6-yl)-5-methyl-2-oxo-oxazolidin-4-ylmethyl ester]
146 nM | C[C@H]1COCCN1c1nc(-c2cnc(N)nc2C(F)(F)F)cc(N2C(=O)OC[C@@H]2C)n1 [Example 13, (S)-3-[2′-Amino-2-((S)-3-methyl-morpholin-4-yl)-4′-trifluoromethyl-[4,5′]bipyrimidinyl-6-yl]-4-methyl-oxazolidin-2-one]
18 nM | Nc1ncc(-c2cc(N3C[C@@H](CO)OC3=O)nc(N3CCOCC3)n2)c(C(F)(F)F)n1 [Example 14, (S)-3-(2′-Amino-2-morpholin-4-yl-4′-trifluoromethyl-[4,5′]bipyrimidinyl-6-yl)-5-hydroxymethyl-oxazolidin-2-one]
21 nM | C[C@H]1[C@H](CO)OC(=O)N1c1cc(-c2cnc(N)nc2C(F)(F)F)nc(N2CCOCC2)n1 [Example 15, (4S,5R)-3-(2′-Amino-2-morpholin-4-yl-4′-trifluoromethyl-[4,5′]bipyrimidinyl-6-yl)-5-hydroxymethyl-4-methyl-oxazolidin-2-one]
20 nM | C[C@H]1CN(c2cc(-c3cnc(N)nc3C(F)(F)F)nc(N3CCOCC3)n2)C(=O)O1 [Example 16, (S)-3-(2′-Amino-2-morpholin-4-yl-4′-trifluoromethyl-[4,5′]bipyrimidinyl-6-yl)-5-methyl-oxazolidin-2-one]
7 nM | [2H]C1([2H])OC([2H])([2H])C([2H])([2H])N(c2nc(-c3cnc(N)nc3C(F)(F)F)cc(N3C(=O)OC[C@@H]3C)n2)C1([2H])[2H] [Example 17, (S)-3-(2′-amino-2-D8-morpholino-4′-(trifluoromethyl)-[4,5′-bipyrimidin]-6-yl)-4-methyloxazolidin-2-one]
4 nM | C[C@H]1OC(=O)N(c2cc(-c3cnc(N)nc3C(F)(F)F)nc(N3CCOCC3)n2)[C@H]1CO [Example 18, (4S,5R)-3-(2′-Amino-2-morpholin-4-yl-4′-trifluoromethyl-[4,5′]bipyrimidinyl-6-yl)-4-hydroxymethyl-5-methyl-oxazolidin-2-one]
5 nM | C[C@H]1[C@@H](CO)OC(=O)N1c1cc(-c2cnc(N)nc2C(F)(F)F)nc(N2CCOCC2)n1 [Example 19, (4S,5S)-3-(2′-Amino-2-morpholin-4-yl-4′-trifluoromethyl-[4,5′]bipyrimidinyl-6-yl)-5-hydroxymethyl-4-methyl-oxazolidin-2-one]
11 nM | Nc1ncc(-c2cc(N3C[C@H](CO)OC3=O)nc(N3CCOCC3)n2)c(C(F)(F)F)n1 [Example 20, (R)-3-(2′-Amino-2-morpholin-4-yl-4′-trifluoromethyl-[4,5′]bipyrimidinyl-6-yl)-5-hydroxymethyl-oxazolidin-2-one]
